# Experimental data as given in patent US8057810B2, “Peptide substance revealing an immunogeroprotective effect, pharmaceutical composition on its base and the method of its application” (priority 2006, dated 2011).
# Residues, ends and D or L forms follow the SMILES beside them.
# Legend:
# [1] = tested on: rat thymus cells; experiment: Premature aging induced by ionizing irradiation: rat thymus morphology and morphometry; format: in vivo, Wistar rats
# Description: The experiments were conducted on 40 male Wistar rats 2 months old, weighing 180-210 g. Premature aging was modeled by gamma irradiation using LUCH-1 machine (source 60Co; dose output 17.166×10^−4 Gy/sec.). The animals were irradiated in the dose of 6 Gy daily for 5 days. All the animals were divided into 6 groups:
# 2 and 2a—irradiated rats;
# 3 and 3a—irradiated rats, subjected to subcutaneous injection of peptide H-Glu-Asp-Pro-OH in the dose of 0.5 μg per animal in 0.25 ml of sterile 0.9% NaCl solution in 24 hours after the first performance of irradiation for 10 days.
# Animals of the 2 and 2a group received 0.9% NaCl solution in the same volume and following the same scheme. Slaughtering of the animals and extraction of their thymus were conducted using nembutal anaesthesia (50 mg/kg). Thymus in groups 1-3 was extracted on the 14th day after the experiment onset, in the 1a-3a groups—on the 21 day after the experiment onset.
# Fragments of the extracted thymus were fixed for 24 hours in Buen sour liquid for optic microscopy. Material dehydration and filling it in with paraffin for optic microscopy were conducted according to conventional techniques. Paraffin sections (7 μm) were placed on a microscope slide covered with a poly-L-lysine film (Sigma). Histological and immunohistochemical examinations were carried out using Jenamed-2 microscope (Zeiss).
# Review staining of the preparations was conducted by hematoxylin-eosin. Mast cells were selectively stained using 1% toluidine blue (Fluka) solution in 0.5M HCl with pH 0.5.
# For electron microscopy fragments of the extracted thymus were fixed according to Karnovsky's method. […]
# The morphometric studies were conducted by means of the system for computer analysis of microscopic images Imstar using Morphostar and Colquant-2 software, in accordance with the basic principles of stereology and morphometry. […] Proliferative activity index (IPCNA) was calculated using the following formula: IPCNA(%)=NPCNA/Nnuclei×100.
# [2] = tested on: white mongrel male mice; experiment: Acute toxicity, single intramuscular administration; format: in vivo; settings: single i.m. 1-5 mg/kg, dose exceeding the therapeutic one by more than 5000 times
# Description: Common toxicity of H-Glu-Asp-Pro-OH was studied according to the requirements stated in the “Manual for experimental (pre-clinical) study of new pharmacological substances” (2005): acute toxicity in case of single administration of the substance and sub-acute and chronic toxicity in case of long-term administration of the peptide.
# The study of acute toxicity was performed on 60 white mongrel male mice with body weight of 18-21 g. The animals were randomly subdivided into 6 equal groups. The substance was administered to the animals once, intramuscularly, in the doses of 1 mg/kg, 2 mg/kg, 3 mg/kg, 4 mg/kg, 5 mg/kg in 0.25 ml of sterile 0.9% NaCl solution. The control animals received 0.9% NaCl solution in the same volume. The study of subacute toxicity was performed on 50 white mongrel male rats with body weight of 170-210 g. Experimental animals received the substance daily, intramuscularly for 90 days in the doses of 1 μg/kg, 0.1 mg/kg, 1 mg/kg in 0.5 ml of sterile 0.9% NaCl solution. […] Upon completion of the experiment biochemical and coagulologic indices of the blood were also evaluated. […] Traditional methods were used for the evaluation of the following indices of the animals' peripheric blood: the quantity of erythrocytes, hemoglobin, reticulocytes, thrombocytes, leukocytes, leukocyte formula, erythrocyte sedimentation rate (ESR), erythrocyte resistance. […]
# [3] = group 3: irradiated rats, 0.5 μg per animal s.c. for 10 days, 14th day
structure (smiles),measurement,setting,value
"N[C@@H](CCC(=O)O)C(=O)N[C@@H](CC(=O)O)C(=O)N1CCC[C@H]1C(=O)O [Peptide H-Glu-Asp-Pro-OH, glutamyl-aspartyl-proline] (H-Glu-Asp-Pro-OH)",Number of mast cells in the thymus,[1]; [3],32±5 per 1 mm^2
same,Proliferative activity index (IPCNA) in the thymus,[1]; [3],55%
same,Involution changes of the thymus (microscopic analysis) vs irradiated groups 2 and 2a,"[1]; groups 3, 3a: irradiated rats, 0.5 μg per animal s.c., 14th and 21st day",less pronounced involution changes
same,Acute toxicity: toxic reactions,[2],does not cause toxic reactions
